In PMC12209172, “Poly(ADP-ribose)polymerase 2 is zinc-dependent enzyme and nucleosome reorganizer” (Cellular and Molecular Life Sciences: CMLS, 2025):
“And” between values parts separate entries of the source, which are not always exact repeats. Identical values can stand only once. Like-named read-outs stand apart in the source and are kept apart here.

Experiments:
PARP2 [1] = molecular target: T1, PARP2 (Mus musculus, UniProt O88554); assay: Circular dichroism spectroscopy of PARP2 (BeStSel secondary structure analysis); parameters: Recombinant mouse full-length PARP2 was obtained in the baculovirus expression system; made in house; host or cells: Sf9 insect cells (baculovirus); gift of Prof; O. Lavrik; details: 0.3 mM Zn2+, 0.7 mM Ca2+ or 0.7 mM Mg2+
Procedure: (§1) CD spectra of proteins were recorded within the 190-250 nm spectral range with 0.2 nm step using Jasco-810 spectrophotometer (Jasco, Japan) and the quartz […]® cuvette of 0.1 mm thickness (Hellma, Germany. Secondary structure analysis was performed using BeStSel webserver. To improve the reliability of the analysis, the content of canonical secondary structures of various types was predicted for 3-6 independent measurements, and the values were averaged. The statistical significance of the secondary structure difference was determined using the multiple t-test.

[2] = molecular target: T2, PARP2-nucleosome complexes (Mus musculus, UniProt O88554); assay: spFRET microscopy in solution of nucleosomes and PARP2-nucleosome complexes; details: for effect of ions on the nucleosome structure: NP nucleosomes without PARP2, 5 mM ions; for effect of ions on the structure of nucleosomes in PARP2-nucleosome complexes: Zn2+ 0.3 mM, Ca2+ 5 mM or Mg2+ 5 mM
T2 construct: Recombinant mouse full-length PARP2 was obtained in the baculovirus expression system; made in house; host or cells: PARP2: Sf9 insect cells (baculovirus), gift of Prof; O. Lavrik; nucleosomes assembled in house
Procedure: In the study of nucleosome-PARP2 interactions, nucleosomes (1-2 nM) were incubated with PARP2 (12.5-200 nM) in buffer A (50 mM Tris-HCl pH 7.5; 40 mM NaCl; 0.5 mM β-mercaptoethanol (β-ME); 0.1% NP40) at 25 °C for 30 min. When indicated, buffer A was supplemented with 50 μM - 5 mM ZnCl2, 5 mM CaCl2 or 5 mM MgCl2. […] […] measurements in solution were performed as described previously. Each measured single nucleosome was characterized by FRET between Cy3 and Cy5 labels calculated as a proximity ratio (EPR):1 [drawing 1] Where I3 and I5 are fluorescence intensities of Cy3 and Cy5, respectively, and coefficients 0.19 and 0.81 provide correction for the spectral cross-talk between Cy3 and Cy5 detection channels. EPR is a FRET efficiency not corrected for quantum yields of labels and an instrumentation factor. Relative frequency distributions of nucleosomes by EPR values, i.e. EPR profiles, (2000-5000 nucleosomes per experiment; 3 independent experiments) were plotted and further analyzed as a superposition of several normal (Gaussian) distributions for nucleosomes or nucleosome-PARP2 complexes. Since nucleosomes tend to aggregate when PARP2 is added (especially at high concentrations), treatment of signals measured from nucleosomes and their complexes included mandatory rejection of signals from any aggregates that are clearly recognized due to their slow diffusion rate and/or abnormally high fluorescence intensity.

WGR domain of PARP2 [3] = molecular target: T3, WGR domain of PARP2 (Homo sapiens, UniProt Q9UGN5); assay: Circular dichroism spectroscopy of the WGR domain (BeStSel secondary structure analysis); parameters: content of a-helix in the WGR domain / content of b-sheet in the WGR domain / content of turn in the WGR domain / content of random coil in the WGR domain: unit not given here; details: for content of a-helix in the WGR domain / content of b-sheet in the WGR domain / content of random coil in the WGR domain / content of turn in the WGR domain: 5 mM ion, independent measurements
T3 construct: WGR domain of PARP2 (residues 77–220) into pET-15b-TEV expression vector; 6xHis (pET-15b-TEV) (N, cleaved yes); made in house; host or cells: Escherichia coli Rosetta2 (DE3) pLysS
T3 sequence (Q9UGN5 77-220): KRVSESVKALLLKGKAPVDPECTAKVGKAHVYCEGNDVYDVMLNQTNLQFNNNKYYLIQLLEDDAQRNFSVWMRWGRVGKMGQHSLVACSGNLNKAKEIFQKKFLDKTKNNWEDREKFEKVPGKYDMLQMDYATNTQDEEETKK
Procedure: as §1

WGR domain of PARP2 [4] = molecular target: T3, WGR domain of PARP2; assay: Tryptophan fluorescence spectroscopy of the WGR domain titrated with divalent cations (one site binding fit); details: for Kd: Trp fluorescence, one site binding fit, 10 mM HEPES pH 8.0, 150 mM NaCl, residual EDTA present, read-out: dissociation constant of the divalent cation-WGR domain complex; for effect of ions on intensity of tryptophan fluorescence of the WGR domain: WGR domain 5 µM
Procedure: Fluorescence spectra of Trp residues were measured in the 300–450 nm spectral range at the 270 nm excitation wavelengths using the Cary Eclipse spectrofluorometer (Varian/Agilent, USA).
Fluorescence of WGR domain was measured at 0.5 or 5 µM in a buffer containing 10 mM HEPES (pH 8.0), 150 mM NaCl and 0.73 or 7.3 µM EDTA, respectively. Solutions were complemented with ZnCl2 (0.2–308 µM) or MgCl2 (15–5000 µM), or CaCl2 (8–5000 µM) dissolved in a buffer containing 10 mM HEPES (pH 8.0), 150 mM NaCl. Intensity of the measured spectra was corrected for the concomitant dilution of the WGR domain. Integral intensities (Ifl.) of fluorescence spectra were averaged over three independent measurements (mean ± SEM) and used to plot the corresponding Ifl. vs. ion concentration graphs. Data were fitted with the one site binding equation:2 [drawing 2]
Where C is the concentration of divalent cations, Kd is a dissociation constant of the complex, Im and Ifl0 are maximal and initial values of Ifl., respectively.

PARP2 [5] = molecular target: T1, PARP2; assay: Western blot analysis of NAD+-dependent PARylation by PARP2 in PARP2-nucleosome complexes; type: biochemical; parameters: Recombinant mouse full-length PARP2 was obtained in the baculovirus expression system; made in house; host or cells: PARP2: Sf9 insect cells (baculovirus), gift of Prof; O. Lavrik; nucleosomes assembled in house; details: for effect of EDTA on PARylation: EDTA 10 mM
Procedure: Probes were subjected to electrophoresis in 4–12% bis-Tris gradient gel in the NuPAGE™ MES SDS Running Buffer at 130 V. […] The membrane was incubated for 60 min in the PBS-T solution supplemented with the 5% skimmed milk. Then the membrane was incubated with mouse monoclonal antibodies 10 H followed by incubation with the secondary anti-mouse antibodies conjugated with horseradish peroxidase (Bio-Rad, Hercules, CA, USA). The washing procedure was carried out after each step of incubation. Immunodetection was performed using the Super Signal West Pico Chemiluminescent Substrate (Thermo Fisher Scientific, Waltham, MA, USA) for 3 min. The Western blot experiments were performed in three independent repetitions.

PARP2 (Mus musculus) [6] = assay: EMSA; details: no divalent ions; EMSA: 2-3 nM nucleosomes, 5% PAGE in 0.2x TBE, 140 V, 4 C; divalent ions as given per row; binding buffer not in the material
PARP2 (Mus musculus) [7] = molecular target: PARP2 (Mus musculus) (UniProt O88554); details: cited from earlier work
PARP2 (Mus musculus) [8] = molecular target: PARP2 (Mus musculus) (UniProt O88554); details: cited from earlier work; remark: listed apart in the source
[9] = molecular target: Nucleosome assembled on a fluorescently labelled 187-bp DNA template (603 positioning sequence) with histones of chicken donor chromatin (chicken); assay: native gel or EMSA + other: single particle fluorescence intensity analysis in the gel; nucleosomes NP with PARP2 (50 nM) in buffer A with 0.3 mM Zn2+; native PAGE
NP nucleosomes = molecular target: T4, NP nucleosomes (Mus musculus, UniProt O88554); assay: EMSA of PARP2-nucleosome complexes (non-denaturing PAGE, FRET-in-gel); type: binding, chicken
T4 construct: Recombinant mouse full-length PARP2 was obtained in the baculovirus expression system; made in house; host or cells: PARP2: Sf9 insect cells (baculovirus), gift of Prof; O. Lavrik; nucleosomes assembled in house
Procedure: Sample preparation for EMSA was the same as for spFRET microscopy, although a slightly higher concentration of nucleosomes (2–3 nM) was used. The PARP2-nucleosome complexes were subjected to 5% polyacrylamide gel in 0.2×TBE buffer. Electrophoresis was performed under native conditions at 140 V, + 4 °C for ∼1.5 h. The gels were scanned using Amersham Typhoon RGB imager (Cytiva, Sweden). Fluorescence was excited in the gel at the 532 nm wavelength and recorded in the 570–610 nm (Cy3 signal) and 650–700 nm (FRET signal of Cy5) spectral regions. The resulting images were obtained in green (Cy3 signal) and red (FRET signal of Cy5) colors and merged.

nucleosome = details: read-out: Kd of PARP2-nucleosome complex, cited from earlier work
DNA = details: read-out: Kd of PARP2 complex with DNA, cited from earlier work

[Ca+2].[Cl-].[Cl-] [Ca2+, CaCl2]
effect of ions on the CD spectrum / conformation of PARP2 (PARP2 [1]): similar
effect of ions on the nucleosome structure [2]: minimally affect
effect of ions on the structure of nucleosomes in PARP2-nucleosome complexes ([2]; PARP2 50 nM): not changed
effect of ions on the structure of the WGR domain (CD) (WGR domain of PARP2 [3]): only minimal changes
content of a-helix in the WGR domain (WGR domain of PARP2 [3]): 14.9 and 10.9 and 11.1
content of b-sheet in the WGR domain (WGR domain of PARP2 [3]): 30.1 and 29.5 and 31.3
content of random coil in the WGR domain (WGR domain of PARP2 [3]): 43.7 and 47.2 and 46.3
content of turn in the WGR domain (WGR domain of PARP2 [3]): 11.4 and 12.5 and 11.3
Kd (WGR domain of PARP2 [4]): 29000 ± 14000 nM
effect of ions on intensity of tryptophan fluorescence of the WGR domain (WGR domain of PARP2 [4]): considerably lower than the effect of Zn^2+ ions

O=C(O)CN(CCN(CC(=O)O)CC(=O)O)CC(=O)O [EDTA, ethylenediaminetetraacetic acid]
effect of EDTA on PARP2-nucleosome complexes preformed in the presence of Zn2+ ([2]; EDTA 10 mM, Zn2+ 0.15 mM, PARP2 50 nM): does not reverse the changes in the nucleosome structure
effect of EDTA on PARylation (PARP2 [5]; Mg2+ 5 mM): fully reverses the effect of Mg^2+ ions
effect of EDTA on PARylation (PARP2 [5]; Zn2+ 0.3 mM): strongly enhances the efficiency of PARylation
effect of EDTA on PARylation (PARP2 [5]; absence of divalent ions): does not affect PARylation

[Cl-].[Cl-].[Mg+2] [Mg2+, MgCl2]
effect of ions on the CD spectrum / conformation of PARP2 (PARP2 [1]): similar
effect of ions on the nucleosome structure [2]: minimally affect
effect of ions on the structure of nucleosomes in PARP2-nucleosome complexes ([2]; PARP2 50 nM): not changed
effect of ions on the structure of the WGR domain (CD) (WGR domain of PARP2 [3]): only minimal changes
content of a-helix in the WGR domain (WGR domain of PARP2 [3]): 13.8 and 13.1 and 13.6
content of b-sheet in the WGR domain (WGR domain of PARP2 [3]): 27.8 and 25.8 and 28.5
content of random coil in the WGR domain (WGR domain of PARP2 [3]): 46 and 48.5 and 46.1
content of turn in the WGR domain (WGR domain of PARP2 [3]): 12.3 and 12.6 and 11.7
effect of ions on efficiency of PARP2-mediated PARylation (PARP2 [5]; Mg2+ 5 mM or Zn2+ 0.3 mM, PARP2 100 nM, nucleosomes 3 nM, NAD+ 0-5 µM): increase
Kd (WGR domain of PARP2 [4]): 180000 ± 80000 nM
effect of ions on intensity of tryptophan fluorescence of the WGR domain (WGR domain of PARP2 [4]): considerably lower than the effect of Zn^2+ ions

Np nucleosome (s603-42A, 187 bp DNA)
K half (PARP2 (Mus musculus) [6]): 40 nM

PARP2 (from UniProt O88554)
Kd (PARP2 (Mus musculus) [7]): 152 nM
Kd (PARP2 (Mus musculus) [8]): 101 nM

Recombinant mouse full-length PARP2 (poly(ADP-ribose)polymerase 2) (from UniProt O88554 1-559) (enzyme)
stoichiometry N (PARP2 per nucleosome) [9]: 1 and 2

B1: PARP2: Recombinant mouse full-length PARP2 obtained in the baculovirus expression system using Sf9 insect cells (protein)
chain: MAPRRQRSGSGRRVLNEAKKVDNGNKATEDDSPPGKKMRTCQRKGPMAGGKDADRTKDNRDSVKTLLLKGKAPVDPECAAKLGKAHVYCEGDDVYDVMLNQTNLQFNNNKYYLIQLLEDDAQRNFSVWMRWGRVGKTGQHSLVTCSGDLNKAKEIFQKKFLDKTKNNWEDRENFEKVPGKYDMLQMDYAASTQDESKTKEEETLKPESQLDLRVQELLKLICNVQTMEEMMIEMKYDTKRAPLGKLTVAQIKAGYQSLKKIEDCIRAGQHGRALVEACNEFYTRIPHDFGLSIPPVIRTEKELSDKVKLLEALGDIEIALKLVKSERQGLEHPLDQHYRNLHCALRPLDHESNEFKVISQYLQSTHAPTHKDYTMTLLDVFEVEKEGEKEAFREDLPNRMLLWHGSRLSNWVGILSHGLRVAPPEAPITGYMFGKGIYFADMSSKSANYCFASRLKNTGLLLLSEVALGQCNELLEANPKAQGLLRGKHSTKGMGKMAPSPAHFITLNGSTVPLGPASDTGILNPEGYTLNYNEFIVYSPNQVRMRYLLKIQFNFLQLW
PARP2 concentration at which complexes with nucleosomes are formed (NP nucleosomes; absence of divalent ions): ≥ 12.5 nM
EC50 (NP nucleosomes; absence of divalent ions, read-out: PARP2 concentration at ~50% decrease in the number of free nucleosomes (50% of nucleosomes in complexes)): 40 ± 10 nM
PARP2 concentration above which aggregation prevents separation of complexes in the gel (NP nucleosomes; presence of 0.3 mM Zn2+): above 50 nM
Kd (nucleosome; ref 28): 150 nM
Kd (nucleosome; ref 59): 76 nM
Kd (DNA; 18 bp duplex oligonucleotides): 11 nM
Kd (DNA; 147 bp DNA having a gap): 58 nM
Kd (DNA; 147 bp intact DNA): 840 nM
